Assay results taken from ChEMBL document CHEMBL2062468, “Identification of first proadrenomedullin N-terminal 20 peptide (PAMP) modulator by means of virtual screening and NMR interaction experiments” (Eur J Med Chem, 2012).
Active and inactive are the calls of the source. The rule behind the calls is not given here.

Tests used:
[1] = target: T1, Pro-adrenomedullin (Homo sapiens) (UniProt P35318); experiment: Binding affinity to human synthetic proadrenomedullin N-terminal 20 peptide assessed as reduction in absorbance at 1 uM after 1 hr by monoclonal antibody method; set-up: scale not given: the % may be the effect or the level left
T1 sequence (whole entry): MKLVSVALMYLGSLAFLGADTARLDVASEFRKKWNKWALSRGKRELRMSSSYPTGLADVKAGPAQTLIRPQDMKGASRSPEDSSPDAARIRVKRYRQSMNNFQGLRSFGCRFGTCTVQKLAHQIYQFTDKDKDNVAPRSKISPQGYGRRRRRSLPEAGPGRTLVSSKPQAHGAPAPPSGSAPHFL

[2] = target: T1, Pro-adrenomedullin (Homo sapiens); experiment: Binding affinity to human proadrenomedullin N-terminal 20 peptide at 500 uM by NMR spectroscopy
Mus musculus = experiment: Induction of angiogenesis in mouse athymic nude mouse implanted with matrigel containing compound at 1 uM measured after 11 days by direct in vivo angiogenesis assay; type: functional, organism-based
[3] = target: T1, Pro-adrenomedullin (Homo sapiens); experiment: Binding affinity to human proadrenomedullin N-terminal 20 peptide assessed as fragmentation of PAMP protein at 500 uM by MS analysis

Row | SMILES | Activity [1] [%] | further results
1 | C(CCc1nnc2c(n1)CCCC2)Cc1nnc2c(n1)CCCC2 | 96.5 | 
2 | Cn1c(=O)c2c(ncn2CN2CCN(Cn3cnc4c3c(=O)n(C)c(=O)n4C)CC2)n(C)c1=O | 76.4 | 
3 | CC(C)CCC[C@@H](C)[C@H]1CC[C@H]2[C@@H]3CCC4CC(N)CC[C@]4(C)[C@H]3CC[C@]12C (stereo partly specified) | 106 | 
4 | OC[C@H]1O[C@@H](n2cnc3c(SCc4ccccc4)ncnc32)[C@H](O)[C@@H]1O | 109 | 
5 | c1ccc([PH](CC[PH](c2ccccc2)(c2ccccc2)c2ccccc2)(c2ccccc2)c2ccccc2)cc1 | 84.6 | 
6 | c1ccc2c(CN3CCN(Cc4c[nH]c5ccccc45)CC3)c[nH]c2c1 | 89.7 | 
7 | C[C@]12CC[C@@H]3c4ccc(O)cc4CC[C@H]3[C@@H]1CC[C@@H]2OC(=O)CCC1CCCC1 | 91.2 | 
8 | Cc1ccc(-c2nc(-c3nccc4ccccc34)oc2-c2ccccc2)cc1 | 72.1 | 
9 | Cn1cnc([N+](=O)[O-])c1Sc1nc(N)nc2c1ncn2[C@H]1C[C@H](O)[C@@H](CO)O1 | 86.3 | 
10 | CC1(C)CC(Nc2ccc(Nc3ccccc3)cc2)CC(C)(C)N1 | 96.2 | 
11 | O=C1c2ccccc2C(=O)c2c(NC3CCCCC3)ccc(Nc3ccc(S(=O)(=O)O)cc3)c21 | 101 | 
12 | Nc1ncnc2nc(-c3ccc(C[PH](c4ccccc4)(c4ccccc4)c4ccccc4)cc3)[nH]c12 | 76 | 
13 | O=c1[nH]c2ccccc2n1CCCN1CCC(n2c(=O)[nH]c3cc(Cl)ccc32)CC1 | 80.1 | 
14 | FC(F)(F)c1nc2ccc(SSc3ccc4nc(C(F)(F)F)[nH]c4c3)cc2[nH]1 | 109 | 
15 | CN1C(=O)C2N=C(C3CC(=O)CC(c4nc5c(=O)n(C)c(=O)n(C)c5[nH]4)N3)NC2N(C)C1=O (stereo unspecified) | 85.1 | Activity [2]: Active; Activity (Mus musculus): Active
16 | O=C1C2C3C=CC(C2C(=O)N1CN1CCSCC1)C1C2C(=O)N(CN4CCSCC4)C(=O)C2C31 (stereo unspecified) | 92.5 | 

Row | SMILES | Activity [1] [%] | further results
17 | c1cc(NNc2cccc(-c3nnn[nH]3)c2)cc(-c2nnn[nH]2)c1 | 95.3 | 
18 | O=S(=O)(O)c1ccc2cc(/N=N/c3cc(S(=O)(=O)O)c4cccnc4c3O)ccc2c1 | 86.4 | Activity [2]: Active; Activity [3]: Active
19 | S=C(Nc1ccc2c(c1)Cc1ccccc1-2)Nc1ccc2c(c1)Cc1ccccc1-2 | 80.8 | 
20 | O=[N+]([O-])c1ccc2c(c1)N=C1OC(c3c[nH]c4ccc(COc5ccccc5)cc34)C(O)=C1N2 (stereo unspecified) | 92.7 | 
21 | Nc1nc(-c2ccc3ccccc3c2)cc(-c2cc(-c3ccc4ccccc4c3)nc(N)n2)n1 | 104 | 
22 | O=C1C(Cl)=C(Sc2nnc3c4ccccc4c4ccccc4c3n2)C(=O)c2ccccc21 | 88.4 | 
23 | O=C(O)CNC(=O)C1NC(C(F)(F)F)(C(F)(F)F)OC1(C(F)(F)F)C(F)(F)F (stereo unspecified) | 92.1 | 
24 | Nc1nc(-c2ccccc2)c(-c2ccccc2)c(-c2nc(N)nc(-c3ccccc3)c2-c2ccccc2)n1 | 109 | 
25 | Clc1ccc2c(N3CCC(CCC4CCN(c5ncnc6cc(Cl)ccc56)CC4)CC3)ncnc2c1 | 88 | 
26 | S=C1NCN2CCN(CC2)CNC(=S)C(=S)NCN2CCN(CC2)CNC1=S | 88 | 
27 | Cc1ccc2ccccc2c1CSc1nc(N)nc2c1ncn2CC(C)C | 85.5 | 
28 | O=C(O)c1c(-c2nccc3ccccc23)[nH]c(-c2ccccc2)c1S(=O)(=O)O | 96.7 | 
29 | CC1c2ccccc2Cn2cc3c(c21)C(=O)c1cccc(OP(=O)(O)OCc2ccccc2)c1C3=O (stereo unspecified) | 107 | 
30 | C[C@]12CC[C@@H]3c4ccc(O)cc4CC[C@H]3[C@@H]1CC[C@@H]2OC(=O)CCc1ccccc1 | 98.4 | 
31 | O=S(=O)(O)c1ccc(-c2nnc(-c3ccccn3)nc2-c2ccc(S(=O)(=O)O)o2)o1 | 81.9 | 
32 | Nc1nc(SCc2ccccc2)c2ncn(Cc3ccccc3)c2n1 | 91.4 | 
